In ChEMBL document CHEMBL4507276 (2021):

Experiments:
Details in all cases: Compound concentration 1000.0 nM
[1] = target: Atypical kinase COQ8A, mitochondrial (Homo sapiens) (UniProt Q8NI60)
[2] = target: Serine/threonine-protein kinase B-raf (Homo sapiens) (UniProt P15056)
[3] = target: T1, Megakaryocyte-associated tyrosine-protein kinase (Homo sapiens) (UniProt P42679)
T1 sequence (whole entry): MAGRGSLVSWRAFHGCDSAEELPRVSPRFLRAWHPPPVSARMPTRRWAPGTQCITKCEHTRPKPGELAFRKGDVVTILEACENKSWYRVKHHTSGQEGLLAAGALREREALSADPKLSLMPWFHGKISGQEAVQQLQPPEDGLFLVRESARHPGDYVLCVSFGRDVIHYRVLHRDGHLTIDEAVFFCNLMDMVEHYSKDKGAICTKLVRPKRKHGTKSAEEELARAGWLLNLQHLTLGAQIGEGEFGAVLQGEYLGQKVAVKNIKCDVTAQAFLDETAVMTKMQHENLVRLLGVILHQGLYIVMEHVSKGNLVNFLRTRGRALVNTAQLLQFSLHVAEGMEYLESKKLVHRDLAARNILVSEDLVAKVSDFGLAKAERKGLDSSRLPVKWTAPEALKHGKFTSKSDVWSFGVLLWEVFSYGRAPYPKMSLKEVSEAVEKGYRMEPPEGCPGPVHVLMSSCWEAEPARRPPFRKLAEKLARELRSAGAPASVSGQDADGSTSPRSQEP

[4] = target: Serine/threonine-protein kinase DCLK3 (Homo sapiens) (UniProt Q9C098)
[5] = test system: Epidermal growth factor receptor (Homo sapiens), P00533 [UNDEFINED MUTATION]
[6] = target: Ephrin type-A receptor 3 (Homo sapiens) (UniProt P29320)
[7] = test system: Receptor-type tyrosine-protein kinase FLT3 (Homo sapiens), P36888 [N841I]
[8] = target: T2, Muscle, skeletal receptor tyrosine-protein kinase (Homo sapiens) (UniProt O15146)
T2 sequence (whole entry): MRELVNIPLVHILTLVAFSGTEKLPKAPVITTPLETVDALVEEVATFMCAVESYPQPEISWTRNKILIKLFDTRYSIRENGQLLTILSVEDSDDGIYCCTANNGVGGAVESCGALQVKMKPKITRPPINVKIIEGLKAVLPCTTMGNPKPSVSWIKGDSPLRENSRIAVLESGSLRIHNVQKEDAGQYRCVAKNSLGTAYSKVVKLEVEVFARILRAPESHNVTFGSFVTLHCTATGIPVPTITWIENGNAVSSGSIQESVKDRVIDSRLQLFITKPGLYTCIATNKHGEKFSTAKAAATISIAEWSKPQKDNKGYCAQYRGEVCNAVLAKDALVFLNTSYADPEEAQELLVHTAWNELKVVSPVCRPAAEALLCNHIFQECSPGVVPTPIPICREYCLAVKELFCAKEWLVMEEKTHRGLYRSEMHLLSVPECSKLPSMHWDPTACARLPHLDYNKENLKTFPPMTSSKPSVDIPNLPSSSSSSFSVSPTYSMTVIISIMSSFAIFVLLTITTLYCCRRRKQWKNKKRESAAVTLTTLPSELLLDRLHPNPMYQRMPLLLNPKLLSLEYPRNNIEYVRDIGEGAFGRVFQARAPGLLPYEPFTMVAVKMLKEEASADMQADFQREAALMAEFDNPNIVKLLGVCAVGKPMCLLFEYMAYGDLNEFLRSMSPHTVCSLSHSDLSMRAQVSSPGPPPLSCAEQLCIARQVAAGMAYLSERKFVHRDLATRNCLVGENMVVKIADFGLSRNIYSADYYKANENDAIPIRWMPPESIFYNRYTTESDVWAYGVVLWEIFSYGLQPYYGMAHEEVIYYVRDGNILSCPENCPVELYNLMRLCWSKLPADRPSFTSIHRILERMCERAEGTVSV

[9] = target: Serine/threonine-protein kinase SIK3 (Homo sapiens) (UniProt Q9Y2K2)
[10] = target: Uncharacterized serine/threonine-protein kinase SBK3 (Homo sapiens) (UniProt P0C264)
[11] = target: T3, Serine/threonine-protein kinase Sgk2 (Homo sapiens) (UniProt Q9HBY8)
T3 sequence (whole entry): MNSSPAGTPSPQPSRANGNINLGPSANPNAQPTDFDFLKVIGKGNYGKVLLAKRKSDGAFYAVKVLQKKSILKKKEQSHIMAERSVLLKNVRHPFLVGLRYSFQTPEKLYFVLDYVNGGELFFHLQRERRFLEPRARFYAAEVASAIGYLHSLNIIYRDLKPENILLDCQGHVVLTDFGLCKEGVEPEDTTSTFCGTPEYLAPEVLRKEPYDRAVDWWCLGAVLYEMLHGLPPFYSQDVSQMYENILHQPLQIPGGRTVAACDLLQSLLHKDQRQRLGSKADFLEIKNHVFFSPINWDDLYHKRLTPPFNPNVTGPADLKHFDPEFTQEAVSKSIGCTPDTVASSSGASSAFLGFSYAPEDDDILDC

[12] = target: Serine/threonine-protein kinase 16 (Homo sapiens) (UniProt O75716)
[13] = target: Serine/threonine-protein kinase ULK1 (Homo sapiens) (UniProt O75385)
[14] = target: Serine/threonine-protein kinase WNK2 (Homo sapiens) (UniProt Q9Y3S1)

Measured: residual activity

Sequence of Serine/threonine-protein kinase 16 (Homo sapiens) (O75716 whole entry): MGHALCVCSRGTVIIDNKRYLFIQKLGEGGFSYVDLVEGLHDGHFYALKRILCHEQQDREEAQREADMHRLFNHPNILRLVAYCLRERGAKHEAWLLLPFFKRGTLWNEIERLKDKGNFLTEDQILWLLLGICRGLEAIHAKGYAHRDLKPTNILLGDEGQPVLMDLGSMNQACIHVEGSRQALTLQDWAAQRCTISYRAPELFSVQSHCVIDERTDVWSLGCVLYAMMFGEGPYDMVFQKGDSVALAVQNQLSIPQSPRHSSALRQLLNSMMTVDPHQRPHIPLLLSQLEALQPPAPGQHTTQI
Sequence of Ephrin type-A receptor 3 (Homo sapiens) (P29320 whole entry): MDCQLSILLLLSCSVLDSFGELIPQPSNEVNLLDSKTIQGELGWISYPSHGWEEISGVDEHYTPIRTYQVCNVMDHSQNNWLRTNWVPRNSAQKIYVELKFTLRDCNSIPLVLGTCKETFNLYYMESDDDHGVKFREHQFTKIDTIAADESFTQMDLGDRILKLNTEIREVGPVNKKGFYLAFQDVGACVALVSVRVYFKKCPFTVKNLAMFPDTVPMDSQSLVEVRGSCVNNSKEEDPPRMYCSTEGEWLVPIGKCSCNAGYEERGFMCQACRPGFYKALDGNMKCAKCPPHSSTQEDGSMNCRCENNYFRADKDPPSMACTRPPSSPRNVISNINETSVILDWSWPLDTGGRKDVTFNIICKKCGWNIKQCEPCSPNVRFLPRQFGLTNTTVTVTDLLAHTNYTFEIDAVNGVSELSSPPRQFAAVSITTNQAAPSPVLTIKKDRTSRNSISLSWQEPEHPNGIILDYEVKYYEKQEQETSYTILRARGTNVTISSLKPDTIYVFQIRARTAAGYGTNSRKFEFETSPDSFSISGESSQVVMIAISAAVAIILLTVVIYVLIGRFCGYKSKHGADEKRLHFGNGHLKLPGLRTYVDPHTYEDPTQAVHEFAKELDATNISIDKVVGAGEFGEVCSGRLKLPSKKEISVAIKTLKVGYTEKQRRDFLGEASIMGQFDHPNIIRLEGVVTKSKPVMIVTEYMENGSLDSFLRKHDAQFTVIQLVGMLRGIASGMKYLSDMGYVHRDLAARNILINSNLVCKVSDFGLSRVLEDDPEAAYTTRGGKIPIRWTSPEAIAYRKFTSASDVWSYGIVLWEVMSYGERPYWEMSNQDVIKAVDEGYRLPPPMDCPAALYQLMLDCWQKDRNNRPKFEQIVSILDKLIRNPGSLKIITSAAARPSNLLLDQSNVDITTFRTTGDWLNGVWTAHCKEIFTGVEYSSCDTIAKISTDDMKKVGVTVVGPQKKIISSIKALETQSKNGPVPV
Sequence of Serine/threonine-protein kinase SIK3 (Homo sapiens) (Q9Y2K2 whole entry, looked up): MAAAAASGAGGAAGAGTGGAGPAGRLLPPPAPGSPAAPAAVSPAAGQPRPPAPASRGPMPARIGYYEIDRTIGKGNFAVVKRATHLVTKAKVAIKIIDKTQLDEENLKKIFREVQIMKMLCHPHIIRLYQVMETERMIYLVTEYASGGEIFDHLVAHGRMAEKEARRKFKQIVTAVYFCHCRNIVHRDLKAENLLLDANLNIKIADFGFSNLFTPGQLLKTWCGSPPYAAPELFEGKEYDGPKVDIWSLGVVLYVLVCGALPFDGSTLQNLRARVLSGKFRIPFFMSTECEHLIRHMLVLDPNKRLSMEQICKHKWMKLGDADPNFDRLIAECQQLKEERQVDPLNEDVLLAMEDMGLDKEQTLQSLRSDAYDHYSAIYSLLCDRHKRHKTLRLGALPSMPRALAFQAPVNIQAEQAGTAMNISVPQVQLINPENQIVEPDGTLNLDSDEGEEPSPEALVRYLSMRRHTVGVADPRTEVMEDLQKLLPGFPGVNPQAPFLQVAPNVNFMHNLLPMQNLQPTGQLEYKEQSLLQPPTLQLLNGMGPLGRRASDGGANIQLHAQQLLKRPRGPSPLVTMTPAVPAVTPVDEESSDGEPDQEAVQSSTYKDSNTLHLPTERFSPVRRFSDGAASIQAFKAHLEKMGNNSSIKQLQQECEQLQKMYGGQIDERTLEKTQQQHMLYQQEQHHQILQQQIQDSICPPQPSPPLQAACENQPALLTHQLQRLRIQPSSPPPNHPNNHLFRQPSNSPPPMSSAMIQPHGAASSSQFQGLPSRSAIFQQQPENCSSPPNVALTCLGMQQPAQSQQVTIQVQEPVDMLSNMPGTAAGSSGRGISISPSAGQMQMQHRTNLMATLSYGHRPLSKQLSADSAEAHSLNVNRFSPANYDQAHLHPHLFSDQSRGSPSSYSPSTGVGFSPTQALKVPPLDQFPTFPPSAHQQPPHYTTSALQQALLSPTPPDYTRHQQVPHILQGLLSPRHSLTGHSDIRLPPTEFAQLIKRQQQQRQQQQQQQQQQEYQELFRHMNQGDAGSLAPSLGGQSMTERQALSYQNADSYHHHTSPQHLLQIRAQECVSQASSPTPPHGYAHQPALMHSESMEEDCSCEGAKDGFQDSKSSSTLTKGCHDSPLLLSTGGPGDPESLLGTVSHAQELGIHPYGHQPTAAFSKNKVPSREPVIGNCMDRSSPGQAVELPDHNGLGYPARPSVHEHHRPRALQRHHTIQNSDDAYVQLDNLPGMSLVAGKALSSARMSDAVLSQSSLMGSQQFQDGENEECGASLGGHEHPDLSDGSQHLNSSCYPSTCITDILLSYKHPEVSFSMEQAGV
Sequence of Serine/threonine-protein kinase ULK1 (Homo sapiens) (O75385 whole entry): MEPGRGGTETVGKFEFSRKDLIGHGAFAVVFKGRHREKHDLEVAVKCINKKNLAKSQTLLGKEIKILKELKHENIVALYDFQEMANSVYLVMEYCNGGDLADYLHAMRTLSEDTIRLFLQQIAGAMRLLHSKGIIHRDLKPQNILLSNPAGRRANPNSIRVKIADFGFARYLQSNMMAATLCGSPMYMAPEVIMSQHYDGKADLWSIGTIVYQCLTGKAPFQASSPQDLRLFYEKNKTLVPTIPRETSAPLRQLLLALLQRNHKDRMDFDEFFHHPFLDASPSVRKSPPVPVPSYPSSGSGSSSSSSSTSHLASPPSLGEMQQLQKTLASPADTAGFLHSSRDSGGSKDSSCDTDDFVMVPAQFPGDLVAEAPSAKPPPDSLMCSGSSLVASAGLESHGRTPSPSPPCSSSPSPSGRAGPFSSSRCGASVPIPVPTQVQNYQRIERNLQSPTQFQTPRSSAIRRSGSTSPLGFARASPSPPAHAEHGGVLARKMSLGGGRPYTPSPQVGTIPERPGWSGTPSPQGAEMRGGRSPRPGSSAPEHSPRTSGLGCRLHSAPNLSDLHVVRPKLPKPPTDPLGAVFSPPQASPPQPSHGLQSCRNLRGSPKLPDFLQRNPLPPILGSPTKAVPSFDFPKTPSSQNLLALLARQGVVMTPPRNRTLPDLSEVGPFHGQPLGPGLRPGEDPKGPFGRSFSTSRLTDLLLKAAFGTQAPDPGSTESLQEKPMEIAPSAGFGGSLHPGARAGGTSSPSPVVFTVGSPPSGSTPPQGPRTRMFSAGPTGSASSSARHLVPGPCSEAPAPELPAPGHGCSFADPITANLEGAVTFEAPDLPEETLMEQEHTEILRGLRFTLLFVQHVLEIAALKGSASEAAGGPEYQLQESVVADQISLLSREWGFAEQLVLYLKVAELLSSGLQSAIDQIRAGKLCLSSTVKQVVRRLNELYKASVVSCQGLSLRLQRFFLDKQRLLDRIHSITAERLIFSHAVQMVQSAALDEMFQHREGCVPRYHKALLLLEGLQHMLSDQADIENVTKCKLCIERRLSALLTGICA
Sequence of Serine/threonine-protein kinase B-raf (Homo sapiens) (P15056 whole entry): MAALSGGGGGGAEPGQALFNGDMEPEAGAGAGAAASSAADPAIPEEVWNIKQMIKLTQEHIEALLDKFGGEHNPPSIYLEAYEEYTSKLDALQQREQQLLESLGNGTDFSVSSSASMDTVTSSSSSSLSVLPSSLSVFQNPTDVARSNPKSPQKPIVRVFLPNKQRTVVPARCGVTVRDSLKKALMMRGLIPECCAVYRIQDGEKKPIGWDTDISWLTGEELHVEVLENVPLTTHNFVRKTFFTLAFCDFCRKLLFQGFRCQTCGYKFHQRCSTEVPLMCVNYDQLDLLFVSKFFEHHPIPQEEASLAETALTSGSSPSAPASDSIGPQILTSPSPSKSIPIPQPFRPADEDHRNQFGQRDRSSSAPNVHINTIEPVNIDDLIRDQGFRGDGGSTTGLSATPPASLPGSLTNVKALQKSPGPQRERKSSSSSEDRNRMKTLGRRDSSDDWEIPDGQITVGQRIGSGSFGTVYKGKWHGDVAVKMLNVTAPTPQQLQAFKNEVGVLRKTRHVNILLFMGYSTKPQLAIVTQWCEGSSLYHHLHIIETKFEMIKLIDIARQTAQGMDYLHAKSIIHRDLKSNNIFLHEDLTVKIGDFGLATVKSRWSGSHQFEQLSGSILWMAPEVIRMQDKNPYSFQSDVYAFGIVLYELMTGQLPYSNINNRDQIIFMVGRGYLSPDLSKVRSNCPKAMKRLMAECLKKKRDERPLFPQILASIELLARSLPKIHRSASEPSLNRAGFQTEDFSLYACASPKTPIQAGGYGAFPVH
Sequence of Uncharacterized serine/threonine-protein kinase SBK3 (Homo sapiens) (P0C264 whole entry): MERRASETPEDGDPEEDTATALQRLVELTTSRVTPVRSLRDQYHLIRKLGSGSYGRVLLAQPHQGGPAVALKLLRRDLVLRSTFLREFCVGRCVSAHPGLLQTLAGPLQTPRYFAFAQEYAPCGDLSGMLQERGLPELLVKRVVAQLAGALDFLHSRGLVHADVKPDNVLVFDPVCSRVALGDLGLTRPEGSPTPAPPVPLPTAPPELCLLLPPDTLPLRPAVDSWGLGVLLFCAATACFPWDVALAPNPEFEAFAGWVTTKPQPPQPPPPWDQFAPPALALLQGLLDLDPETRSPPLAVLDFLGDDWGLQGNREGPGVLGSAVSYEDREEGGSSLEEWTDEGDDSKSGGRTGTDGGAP

CN(C)C(=O)Cn1cc(-c2nc(C3(c4ccc(-c5cnc(N)nc5)cc4)CC3)no2)cn1 [BI 0153]
inactive: [1] 99% | [2] 88% | [3] 77% | [4] 100% | [5] 100% | [6] 89% | [7] 100% | [8] 100% | [9] 100% | [10] 99% | [11] 100% | [12] 100% | [13] 75% | [14] 67%

CN(C)C(=O)Cn1cc(-c2nc([C@@](C)(c3ccc(-c4cnc(N)nc4)cc3)C3CC3)no2)cn1 [BI 665915]
inactive: [1] 100% | [2] 82% | [3] 77% | [4] 96% | [5] 100% | [6] 100% | [7] 83% | [8] 100% | [9] 70% | [10] 71% | [11] 83% | [12] 100% | [13] 77% | [14] 100%
